Reference: patent publication EP4725957A1, “GROUP OF CYCLIC ALKALINE LIPOPEPTIDE COMPOUNDS, AND PREPARATION METHOD THEREFOR AND USE THEREOF” (Institute of Medicinal Biotechnology, Chinese Academy of …, priority 2023, dated 2024)
Bridge positions count the residues as written; N and C are the ends. Square brackets hold non-standard residues; d marks the D form. Peptide text beside a SMILES is read from it. * marks the point of attachment. Heptanoyl(6-Me) = CC(C)CCCCC(=O)*; Dab = NCC[C@H](N)C(=O)O; Dap = NC[C@H](N)C(=O)O

Key:
[1] = Nephrotoxicity assay: in vitro cytotoxicity of HK-2 cells by CCK-8 assay; format: cell-based; conditions: human, HK-2 cells (human renal), 72 h incubation with drug-containing medium
Method in brief: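 HK-2 human renal cells in RPMI-1640 with 10% FBS were exposed to compounds at final 12.5–500 µg/mL for 72 h, then CCK-8 for 3 h and OD450 read. Viability was normalised to drug-free wells; IC50 came from logarithmic regression over three repeats, with polymyxin B as positive drug.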

Healthy ICR mice = experiment: Acute toxicity test in healthy mice, single tail vein injection; format: in vivo; conditions: within 7 days
Experimental: (§1) Healthy ICR mice aged 5-6 weeks were selected, with 5-10 mice in each group, and administered via a single tail vein injection at an administration volume of 20 mL/kg. In the preliminary test, the drug dose concentrations that caused 100% mortality and no mortality in mice after a single intravenous injection were determined. Based on this dose range, 4-5 dose groups were set up, with a dose ratio of 1:0.5 to 1:0.8 between adjacent groups. The mortality of animals within 7 days after administration was recorded. According to the mortality rate of experimental animals in each group, the median lethal dose (LD50) of the test samples, i.e., the dose causing 50% mortality of the tested animals, was calculated by the Bliss method.

[2] = as above; format: in vivo; conditions: mouse, in vivo, iv; ICR mice, single tail vein injection, Bliss method
Experimental: as §1

SMILES: CC(C)CCCCC(=O)N[C@@H](CCN)C(=O)N[C@H](C(=O)N[C@@H](CN)C(=O)N[C@H]1CCNC(=O)[C@H]([C@@H](C)O)NC(=O)[C@H](CCN)NC(=O)[C@H](CCN)NC(=O)[C@H]([C@@H](C)O)NC(=O)[C@@H](Cc2ccccc2)NC(=O)[C@H](CCN)NC1=O)[C@@H](C)O [Compound 7, 6-methylheptanoyl-Dab-Thr-Dap-ring(4-10)[Dab-Dab-D-Phe-Thr-Dab-Dab-Thr]] ({Heptanoyl(6-Me)}-[Dab]T[Dap][Dab][Dab][dF]T[Dab][Dab]T; lactam 4-C)
- IC50 at 72 h [1]: > 500 µg/mL
- mortality rate (Healthy ICR mice; single tail vein injection 15.36 mg/kg): 0%
- mortality rate (Healthy ICR mice; single tail vein injection 19.2 mg/kg): 12.5%
- mortality rate (Healthy ICR mice; single tail vein injection 24 mg/kg): 25%
- mortality rate (Healthy ICR mice; single tail vein injection 30 mg/kg): 100%
- LD50 at 168 h [2]: 24.4 mg/kg
